Results as given in patent US9914730B2, “Azaquinazoline inhibitors of Atypical protein Kinase C” (Ignyta, Inc., priority 2012, dated 2018).

Biological target: T1, full-length human PKCι (Homo sapiens, UniProt P41743)
T1 construct: Recombinant, full-length human PKCι expressed in Sf21 insect cells is also commercially available; purchased; host or cells: Sf21 insect cells
T1 sequence (P41743 1-596): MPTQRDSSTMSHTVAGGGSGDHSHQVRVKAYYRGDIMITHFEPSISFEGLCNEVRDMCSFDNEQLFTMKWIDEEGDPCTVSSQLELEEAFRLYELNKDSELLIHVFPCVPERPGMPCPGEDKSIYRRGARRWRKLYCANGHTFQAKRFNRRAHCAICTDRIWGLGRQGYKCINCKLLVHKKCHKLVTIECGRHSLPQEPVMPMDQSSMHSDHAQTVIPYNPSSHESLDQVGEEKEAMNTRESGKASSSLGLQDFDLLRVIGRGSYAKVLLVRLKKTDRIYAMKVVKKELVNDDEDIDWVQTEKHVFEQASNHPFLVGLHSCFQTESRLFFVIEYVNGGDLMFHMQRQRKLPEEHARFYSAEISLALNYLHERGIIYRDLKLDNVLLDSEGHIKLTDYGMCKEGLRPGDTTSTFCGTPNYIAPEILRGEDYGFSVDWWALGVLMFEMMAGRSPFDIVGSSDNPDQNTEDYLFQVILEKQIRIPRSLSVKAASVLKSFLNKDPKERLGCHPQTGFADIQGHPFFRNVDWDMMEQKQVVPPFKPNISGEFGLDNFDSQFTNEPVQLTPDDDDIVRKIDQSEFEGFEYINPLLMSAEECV
Experiment: PKCι IC50 IMAP assay, full-length PKCι at 150 μM ATP
Format: biochemical
Settings: read-out: IC50 in IMAP assay against full length PKCi at 150 μM ATP
Outline: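 IC50 from IMAP FP (ex 485/em 530 nm) after 60 min room-temperature reaction in pH 7.5 tris buffer with 9 mM MgCl2 and 0.9 mM DTT. Enzyme: full-length Sf21-expressed PKCι (~15 pM); ATP 150 μM, five times KM^APP; FAM-labelled peptide 100 nM; DMSO 4%.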

IC50 [nM]	Structure (SMILES)
< 100	Fc1cccc(Nc2cc(-c3nc(N4CCNCC4)c4c(Cl)cncc4n3)ccn2)n1 [Example 253, [4-(5-Chloro-4-piperazin-1-yl-pyrido[3,4-d]pyrimidin-2-yl)-pyridin-2-yl]-(6-fluoro-pyridin-2-yl)-amine]
< 100	Fc1cccc(F)c1Nc1cc(-c2nc(N3CCNCC3)c3c(Cl)cncc3n2)ccn1 [Example 254, [4-(5-Chloro-4-piperazin-1-yl-pyrido[3,4-d]pyrimidin-2-yl)-pyridin-2-yl]-(2,6-difluoro-phenyl)-amine]
100 to 1000	Fc1ccc(Nc2cc(-c3nc(N4CCNCC4)c4c(Cl)cncc4n3)ccn2)c(F)c1 [Example 255, [4-(5-Chloro-4-piperazin-1-yl-pyrido[3,4-d]pyrimidin-2-yl)-pyridin-2-yl]-(2,4-difluoro-phenyl)-amine]
< 100	Cc1ccnc(Nc2cc(-c3nc(N4CCNCC4)c4c(Cl)cncc4n3)ccn2)c1 [Example 256, [4-(5-Chloro-4-piperazin-1-yl-pyrido[3,4-d]pyrimidin-2-yl)-pyridin-2-yl]-(4-methyl-pyridin-2-yl)-amine]
100 to 1000	Fc1ccc(F)c(Nc2cc(-c3nc(N4CCNCC4)c4c(Cl)cncc4n3)ccn2)c1F [Example 257, [4-(5-Chloro-4-piperazin-1-yl-pyrido[3,4-d]pyrimidin-2-yl)-pyridin-2-yl]-(2,3,6-trifluoro-phenyl)-amine]
< 100	Fc1ccc(Nc2cc(-c3nc(N4CCNCC4)c4c(Cl)cncc4n3)ccn2)nc1 [Example 258, [4-(5-Chloro-4-piperazin-1-yl-pyrido[3,4-d]pyrimidin-2-yl)-pyridin-2-yl]-(5-fluoro-pyridin-2-yl)-amine]
< 100	FC(F)(F)c1ccnc(Nc2cc(-c3nc(N4CCNCC4)c4c(Cl)cncc4n3)ccn2)c1 [Example 259, [4-(5-Chloro-4-piperazin-1-yl-pyrido[3,4-d]pyrimidin-2-yl)-pyridin-2-yl]-(4-trifluoromethyl-pyridin-2-yl)-amine]
10000 to 40000	N#Cc1ccc(Nc2cc(-c3nc(N4CCNCC4)c4c(Cl)cncc4n3)ccn2)cn1 [Example 260, 5-[4-(5-Chloro-4-piperazin-1-yl-pyrido[3,4-d]pyrimidin-2-yl)-pyridin-2-ylamino]-pyridine-2-carbonitrile]
100 to 1000	Fc1ccc(F)c(Nc2cc(-c3nc(N4CCNCC4)c4c(Nc5c(F)ccc(F)c5F)cncc4n3)ccn2)c1F [Example 261, {4-Piperazin-1-yl-2-[2-(2,3,6-trifluoro-phenylamino)-pyridin-4-yl]-pyrido[3,4-d]pyrimidin-5-yl}-(2,3,6-trifluoro-phenyl)-amine]
< 100	Fc1ccccc1Nc1cc(-c2nc(N3CCNCC3)c3c(C4CC4)cncc3n2)ccn1 [Example 263, [4-(5-Cyclopropyl-4-piperazin-1-yl-pyrido[3,4-d]pyrimidin-2-yl)-pyridin-2-yl]-(2-fluoro-phenyl)-amine]
< 100	Fc1cccc(F)c1Nc1cc(-c2nc(N3CCNCC3)c3c(C4CC4)cncc3n2)ccn1 [Example 264, [4-(5-Cyclopropyl-4-piperazin-1-yl-pyrido[3,4-d]pyrimidin-2-yl)-pyridin-2-yl]-(2,6-difluoro-phenyl)-amine]
< 100	N#Cc1ccnc(Nc2cc(-c3nc(N4CCNCC4)c4c(C5CC5)cncc4n3)ccn2)c1 [Example 265, 2-[4-(5-Cyclopropyl-4-piperazin-1-yl-pyrido[3,4-d]pyrimidin-2-yl)-pyridin-2-ylamino]-isonicotinonitrile]
< 100	Fc1ccc(F)c(Nc2cc(-c3nc(N4CCNCC4)c4c(C5CC5)cncc4n3)ccn2)c1F [Example 266, [4-(5-Cyclopropyl-4-piperazin-1-yl-pyrido[3,4-d]pyrimidin-2-yl)-pyridin-2-yl]-(2,3,6-trifluoro-phenyl)-amine]
< 100	Cc1ccnc(Nc2cc(-c3nc(N4CCNCC4)c4c(C5CC5)cncc4n3)ccn2)c1 [Example 267, [4-(5-Cyclopropyl-4-piperazin-1-yl-pyrido[3,4-d]pyrimidin-2-yl)-pyridin-2-yl]-(4-methyl-pyridin-2-yl)-amine]
100 to 1000	Fc1cccc(Nc2cc(-c3nc(N4CCNC(C(F)(F)F)C4)c4c(C5CC5)cncc4n3)ccn2)n1 (stereo not drawn) [Example 268, {4-[5-Cyclopropyl-4-(3-trifluoromethyl-piperazin-1-yl)-pyrido[3,4-d]pyrimidin-2-yl]-pyridin-2-yl}-(6-fluoro-pyridin-2-yl)-amine]
< 100	FC(F)(F)c1ccnc(Nc2cc(-c3nc(N4CCNCC4)c4c(C5CC5)cncc4n3)ccn2)c1 [Example 269, [4-(5-Cyclopropyl-4-piperazin-1-yl-pyrido[3,4-d]pyrimidin-2-yl)-pyridin-2-yl]-(4-trifluoromethyl-pyridin-2-yl)-amine]
100 to 1000	FC(F)(F)c1ccc(Nc2cc(-c3nc(N4CCNCC4)c4c(C5CC5)cncc4n3)ccn2)cn1 [Example 270, [4-(5-Cyclopropyl-4-piperazin-1-yl-pyrido[3,4-d]pyrimidin-2-yl)-pyridin-2-yl]-(6-trifluoromethyl-pyridin-3-yl)-amine]
< 100	Fc1ccc(Nc2cc(-c3nc(N4CCNCC4)c4c(C5CC5)cncc4n3)ccn2)nc1 [Example 271, [4-(5-Cyclopropyl-4-piperazin-1-yl-pyrido[3,4-d]pyrimidin-2-yl)-pyridin-2-yl]-(5-fluoro-pyridin-2-yl)-amine]
< 100	Cc1nc(Nc2cc(-c3nc(N4CCNCC4)c4c(C5CC5)cncc4n3)ccn2)oc1C [Example 272, [4-(5-Cyclopropyl-4-piperazin-1-yl-pyrido[3,4-d]pyrimidin-2-yl)-pyridin-2-yl]-(4,5-dimethyl-oxazol-2-yl)-amine]
< 100	c1ccc(Nc2cc(-c3nc(N4CCN[C@@H](C5CC5)C4)c4c(C5CC5)cncc4n3)ccn2)cc1 [Example 273, {4-[5-Cyclopropyl-4-((S)-3-cyclopropyl-piperazin-1-yl)-pyrido[3,4-d]pyrimidin-2-yl]-pyridin-2-yl}-phenyl-amine]
100 to 1000	OC1CCN(c2nc(-c3ccnc(Nc4ccccc4F)c3)nc3cncc(C4CC4)c23)CC1 [Example 274, 1-{5-Cyclopropyl-2-[2-(2-fluoro-phenylamino)-pyridin-4-yl]-pyrido[3,4-d]pyrimidin-4-yl}-piperidin-4-ol]
< 100	CC(C)[C@H]1CN(c2nc(-c3ccnc(Nc4ccccc4)c3)nc3cncc(C4CC4)c23)CCN1 [Example 275, {4-[5-Cyclopropyl-4-((S)-3-isopropyl-piperazin-1-yl)-pyrido[3,4-d]pyrimidin-2-yl]-pyridin-2-yl}-phenyl-amine]
< 100	Fc1ccccc1Nc1cc(-c2nc(N3CCN[C@@H](C4CC4)C3)c3c(C4CC4)cncc3n2)ccn1 [Example 276, {4-[5-Cyclopropyl-4-((S)-3-cyclopropyl-piperazin-1-yl)-pyrido[3,4-d]pyrimidin-2-yl]-pyridin-2-yl}-(2 fluoro-phenyl)-amine]
< 100	Fc1cccc(Nc2cc(-c3nc(N4CCN[C@@H](C5CC5)C4)c4c(C5CC5)cncc4n3)ccn2)n1 [Example 277, {4-[5-Cyclopropyl-4-((S)-3-cyclopropyl-piperazin-1-yl)-pyrido[3,4-d]pyrimidin-2-yl]-pyridin-2-yl}-(6-fluoro-pyridin-2-yl)-amine]
10000 to 40000	CC(F)(F)C1CN(c2nc(-c3ccnc(Nc4ccccc4)c3)nc3cncc(C4CC4)c23)CCN1 (stereo not drawn) [Example 278, (4-{5-Cyclopropyl-4-[3-(1,1-difluoro-ethyl)-piperazin-1-yl]-pyrido[3,4-d]pyrimidin-2-yl}-pyridin-2-yl)-phenyl-amine]
< 100	c1ccc(Nc2cc(-c3nc(N4CCNCC4)c4c(C5CC5)cncc4n3)ccn2)cc1 [Example 279, [4-(5-Cyclopropyl-4-piperazin-1-yl-pyrido[3,4-d]pyrimidin-2-yl)-pyridin-2-yl]-phenyl-amine]
< 100	N#CC[C@H]1CN(c2nc(-c3ccnc(Nc4ccccc4)c3)nc3cncc(C4CC4)c23)CCN1 [Example 280, {(S)-4-[5-Cyclopropyl-2-(2-phenylamino-pyridin-4-yl)-pyrido[3,4-d]pyrimidin-4-yl]-piperazin-2-yl}-acetonitrile]
< 100	c1cc(-c2nc(N3CCNCC3)c3c(C4CC4)cncc3n2)cc(NC2CCCC2)n1 [Example 281, Cyclopentyl-[4-(5-cyclopropyl-4-piperazin-1-yl-pyrido[3,4-d]pyrimidin-2-yl)-pyridin-2-yl]-amine]
< 100	c1cc(-c2nc(N3CCNCC3)c3c(C4CC4)cncc3n2)cc(NC2CCCCC2)n1 [Example 282, Cyclohexyl-[4-(5-cyclopropyl-4-piperazin-1-yl-pyrido[3,4-d]pyrimidin-2-yl)-pyridin-2-yl]-amine]
< 100	c1cc(-c2nc(N3CCNCC3)c3c(C4CC4)cncc3n2)cc(NC2CCOCC2)n1 [Example 283, [4-(5-Cyclopropyl-4-piperazin-1-yl-pyrido[3,4-d]pyrimidin-2-yl)-pyridin-2-yl]-(tetrahydro-pyran-4-yl)-amine]
